{"source": "patent US8530507B2", "about": "“Use of levo-ornidazole in the preparation of anti-anaerobic bacteria infection drugs” (priority 2005, dated 2013)", "key": {"[1]": {"system": "Kunming mice", "test": "Acute toxicology test, LD50 in mice (Bliss method)", "assay_type": "in vivo", "conditions": "for Number of dead animals: 10 animals", "description": "Kunming mice, half males and half females, with body weights of 18˜22 g, were administered the testing drug solution by injection 8 hours after fasting. The death status of animals was consecutively observed for 14 days after administration."}, "[2]": {"system": "Bacteroides", "test": "In vitro MIC determination, clinical anaerobic strains", "assay_type": "cell-based", "conditions": "40 clinical strains, GAM broth, 72 hours anaerobic incubation at 35° C.", "description": "(§1) Experimental strains: isolated from clinical specimens, and species identification were conducted.\n(§2) Bacilli preparation: 4˜5 bacteria colonies with same pattern selected from anaerobic GAM plate were inoculated in GAM broth with inoculating loop. The bacteria was incubated at 35° C. under anaerobic condition until a slight turbidity was attained, and adjusted by means of sterilized saline (deoxygenated) so as to attain a turbidity equivalent to the No. 0.5 McFarland turbidity tube, then diluted with GAM broth (at 1:200) for later use.\n(§3) MIC (Minimum Inhibitory Concentration) determination: the testing drugs and control drugs were diluted with GAM broth to different concentrations in the test tubes, followed by addition of equal volume of diluted Bacilli (at 1:200), MIC values were read 72 hours after anaerobic incubation at 35° C."}, "[3]": {"system": "Fusobacterium nucleatum", "test": "In vitro MIC determination, clinical anaerobic strains", "assay_type": "cell-based", "conditions": "11 clinical strains, GAM broth, 72 hours anaerobic incubation at 35° C.", "description": "as §1, §2, §3"}, "[4]": {"system": "Peptostreptococcus", "test": "In vitro MIC determination, clinical anaerobic strains", "assay_type": "cell-based", "conditions": "Peptostreptococcus, 35 clinical strains, GAM broth, 72 hours anaerobic incubation at 35° C.", "description": "as §1, §2, §3"}, "[5]": {"system": "bacteroides (including Escherichia coli) infection", "test": "Abdominal infection model in mice, ED50", "assay_type": "in vivo, Kunming white mice", "conditions": "death observed 7 days", "description": "(§4) Kunming white mice, body weight of 20±2 g, half males and half females. 10 mice in each dose group with half females and half males. Abdominal infection models were prepared with the entire animal (mice) and treatments were conducted with the testing drugs. The therapeutical efficacy was observed and expressed as ED50 (half effective dose). Drugs were administered twice by oral gavage (administered immediately after infection for one and 6 hours after infection for the other one). The death status of animals was observed consecutively for seven days after infection and being treated."}, "[6]": {"system": "peptostreptococcus (including Escherichia coli)", "test": "Abdominal infection model in mice, ED50", "assay_type": "in vivo, Kunming white mice", "conditions": "death observed 7 days", "description": "as §4"}, "[7]": {"test": "In vivo pharmacokinetics in Beagle dogs", "conditions": "both sexes, dog, beagle dogs, individual intravenous dose 13 mg/kg, plasma", "description": "The clinical dose of ornidazole is 500 mg for human. By calculating, based on body surface area, the pharmacokinetic experimental dose in Beagle dogs was 13 mg/kg in vivo. Six adult beagle dogs (half males and half females, body weight of 9˜11.5 kg) were randomly divided into three groups. According to crossover design, intravenous injection of L-, D-, and racemic ornidazole were administered in turn to each dog every other week (with one week washout period in between). 2 ml of blood was collected from the vein located at the forelimb of the dogs before drug administration and 0.083, 0.5, 1.0, 2.0, 4.0, 6.0, 8.0, 12.0, 16.0, 24.0 hours after drug administration, which was then placed in the heparinized tube, followed by centrifugation to obtain the plasma. Plasma concentration of drug was determined by HPLC. Pharmacokinetics parameters were estimated using the non-compartmental models. The corresponding pharmacokinetics parameters were obtained by BAPP2.0 using the data of plasma concentration of blood with time obtained above."}, "[8]": {"system": "mice", "test": "Effects on spontaneous activities in mice", "assay_type": "in vivo", "conditions": "for spontaneous activity compared with the vehicle control group: recorded at 0.5, 1, 2, 3 and 4 hours", "description": "Chlorpromazine was administered at dose of […] in the positive control group, and the same volume of propylene glycol containing 0.9% sodium chloride injection was administered in the vehicle control group. Spontaneous activity was recorded at 0.5, 1, 2, 3 and 4 hours after drug administration. The injection volume was 0.2 ml/10 g and the administration rate was 0.2 ml/10 sec."}, "[9]": {"system": "mice", "test": "Hypnotic effect of intravenous injection in mice (righting reflex)", "assay_type": "in vivo", "conditions": "both, mouse, in vivo, iv, 160 mg/kg, 30 min", "description": "White mice, half males and half females, fasted for eight hours. The disappearance of righting reflex in mice was observed. The number of animals who lost their righting reflex was recorded in 30 minutes after drug administration."}, "[10]": {"system": "mice", "test": "Effect on the coordination of balancing in mice", "assay_type": "in vivo", "conditions": "intravenous injection", "description": "Experiments were conducted in 9 administration groups, L-, D- and racemic ornidazole were administered to them at doses of 40, 80 and 160 mg/kg. Positive control group received chlorpromazine at a dose of 3 mg/kg."}}, "data": [{"compound": "Cc1ncc([N+](=O)[O-])n1CC(O)CCl", "note": "(racemic) [racemic ornidazole, ornidazole]", "values": [{"measurement": "Death rate", "setting": "[1]; intraperitoneal, 887.4 mg/kg", "value": 0, "unit": "%"}, {"measurement": "Probability units (Y)", "setting": "[1]; intraperitoneal, 887.4 mg/kg", "value": 3.39}, {"measurement": "Number of dead animals", "setting": "[1]; intraperitoneal, 887.4 mg/kg", "value": 0}, {"measurement": "Death rate", "setting": "[1]; intraperitoneal, 1044 mg/kg", "value": 30, "unit": "%"}, {"measurement": "Probability units (Y)", "setting": "[1]; intraperitoneal, 1044 mg/kg", "value": 4.42}, {"measurement": "Number of dead animals", "setting": "[1]; intraperitoneal, 1044 mg/kg", "value": 3}, {"measurement": "Death rate", "setting": "[1]; intraperitoneal, 1228 mg/kg", "value": 80, "unit": "%"}, {"measurement": "Probability units (Y)", "setting": "[1]; intraperitoneal, 1228 mg/kg", "value": 5.46}, {"measurement": "Number of dead animals", "setting": "[1]; intraperitoneal, 1228 mg/kg", "value": 8}, {"measurement": "Death rate", "setting": "[1]; intraperitoneal, 1445 mg/kg", "value": 100, "unit": "%"}, {"measurement": "Probability units (Y)", "setting": "[1]; intraperitoneal, 1445 mg/kg", "value": 6.49}, {"measurement": "Number of dead animals", "setting": "[1]; intraperitoneal, 1445 mg/kg", "value": 10}, {"measurement": "Death rate", "setting": "[1]; intraperitoneal, 1700 mg/kg", "value": 100, "unit": "%"}, {"measurement": "Probability units (Y)", "setting": "[1]; intraperitoneal, 1700 mg/kg", "value": 7.52}, {"measurement": "Number of dead animals", "setting": "[1]; intraperitoneal, 1700 mg/kg", "value": 10}, {"measurement": "Death rate", "setting": "[1]; intravenous, 243 mg/kg", "value": 0, "unit": "%"}, {"measurement": "Probability units (Y)", "setting": "[1]; intravenous, 243 mg/kg", "value": 3.22}, {"measurement": "Number of dead animals", "setting": "[1]; intravenous, 243 mg/kg", "value": 0}, {"measurement": "Death rate", "setting": "[1]; intravenous, 270 mg/kg", "value": 30, "unit": "%"}, {"measurement": "Probability units (Y)", "setting": "[1]; intravenous, 270 mg/kg", "value": 4.06}, {"measurement": "Number of dead animals", "setting": "[1]; intravenous, 270 mg/kg", "value": 3}, {"measurement": "Death rate", "setting": "[1]; intravenous, 300 mg/kg", "value": 50, "unit": "%"}, {"measurement": "Probability units (Y)", "setting": "[1]; intravenous, 300 mg/kg", "value": 4.90}, {"measurement": "Number of dead animals", "setting": "[1]; intravenous, 300 mg/kg", "value": 5}, {"measurement": "Death rate", "setting": "[1]; intravenous, 333 mg/kg", "value": 50, "unit": "%"}, {"measurement": "Probability units (Y)", "setting": "[1]; intravenous, 333 mg/kg", "value": 5.73}, {"measurement": "Number of dead animals", "setting": "[1]; intravenous, 333 mg/kg", "value": 5}, {"measurement": "Death rate", "setting": "[1]; intravenous, 370 mg/kg", "value": 100, "unit": "%"}, {"measurement": "Probability units (Y)", "setting": "[1]; intravenous, 370 mg/kg", "value": 6.57}, {"measurement": "Number of dead animals", "setting": "[1]; intravenous, 370 mg/kg", "value": 10}, {"measurement": "Death rate", "setting": "[1]; oral gavage, 655.4 mg/kg", "value": 0, "unit": "%"}, {"measurement": "Probability units (Y)", "setting": "[1]; oral gavage, 655.4 mg/kg", "value": 3.20}, {"measurement": "Death rate", "setting": "[1]; oral gavage, 819.2 mg/kg", "value": 20, "unit": "%"}, {"measurement": "Probability units (Y)", "setting": "[1]; oral gavage, 819.2 mg/kg", "value": 4.20}, {"measurement": "Death rate", "setting": "[1]; oral gavage, 1024 mg/kg", "value": 70, "unit": "%"}, {"measurement": "Probability units (Y)", "setting": "[1]; oral gavage, 1024 mg/kg", "value": 5.19}, {"measurement": "Probability units (Y)", "setting": "[1]; oral gavage, 1280 mg/kg", "value": 6.19}, {"measurement": "Death rate", "setting": "[1]; oral gavage, 1600 mg/kg", "value": 100, "unit": "%"}, {"measurement": "Number of dead animals", "setting": "[1]; oral gavage, 1600 mg/kg", "value": 10}, {"measurement": "MIC Range", "setting": "[2]", "value": "2.0~16.0 mg/L"}, {"measurement": "MIC50", "setting": "[2]; Bacteroides, read-out: MIC50", "value": 4, "unit": "µg/mL"}, {"measurement": "MIC90", "setting": "[2]; Bacteroides, read-out: MIC90", "value": 8, "unit": "µg/mL"}, {"measurement": "MIC Range", "setting": "[3]", "value": "1.0~32.0 mg/L"}, {"measurement": "MIC50", "setting": "[3]; Fusobacterium nucleatum, read-out: MIC50", "value": 2, "unit": "µg/mL"}, {"measurement": "MIC90", "setting": "[3]; Fusobacterium nucleatum, read-out: MIC90", "value": 32, "unit": "µg/mL"}, {"measurement": "MIC50", "setting": "[4]; read-out: MIC50", "value": 4, "unit": "µg/mL"}, {"measurement": "MIC90", "setting": "[4]; read-out: MIC90", "value": 8, "unit": "µg/mL"}, {"measurement": "ED50", "setting": "[5]; Bacteroides, oral gavage twice (immediately and 6 hours after infection), read-out: ED50 (half effective dose)", "value": 39.9, "unit": "mg/kg"}, {"measurement": "95% CI of ED50", "setting": "[5]; oral gavage twice", "value": "51.9˜30.7 mg/kg"}, {"measurement": "ED50", "setting": "[6]; Peptostreptococcus, oral gavage twice (immediately and 6 hours after infection), read-out: ED50 (half effective dose)", "value": 49.1, "unit": "mg/kg"}, {"measurement": "95% CI of ED50", "setting": "[6]; oral gavage twice", "value": "61.1˜39.4 mg/kg"}, {"measurement": "half-life", "setting": "[7]; HPLC, non-compartmental, read-out: t1/2 (half life) (converted)", "value": "5.55 ± 3.12", "unit": "h"}, {"measurement": "AUC(0-t)", "setting": "[7]; read-out: AUC0-t (area under curve)", "value": "76700 ± 10800", "unit": "ng·h/mL"}, {"measurement": "clearance", "setting": "[7]; read-out: Cl (clearance) (converted)", "value": 23.8, "unit": "mL/min"}, {"measurement": "MRT", "setting": "[7]; read-out: MRT (mean retention time of drugs)", "value": "8.01 ± 3.42", "unit": "h"}, {"measurement": "Vd", "setting": "[7]; read-out: Vβ (elimination volume of distribution)", "value": "11.2 ± 3.96", "unit": "L"}, {"measurement": "recovery of spontaneous activity", "setting": "[8]; 40 mg/kg intravenous", "value": "gradually become normal after 2 hours"}, {"measurement": "spontaneous activity compared with the vehicle control group", "setting": "[8]; 40 mg/kg intravenous", "value": "reduced significantly 1 hour after administration"}, {"measurement": "recovery of spontaneous activity", "setting": "[8]; 80 mg/kg intravenous", "value": "gradually become normal after 3 hours"}, {"measurement": "spontaneous activity compared with the vehicle control group", "setting": "[8]; 80 mg/kg intravenous", "value": "reduced significantly at 0.5, 1 and 2 hours"}, {"measurement": "recovery of spontaneous activity", "setting": "[8]; 160 mg/kg intravenous", "value": "gradually become normal after 4 hours"}, {"measurement": "spontaneous activity compared with the vehicle control group", "setting": "[8]; 160 mg/kg intravenous", "value": "reduced significantly at 0.5, 1, 2 and 3 hours"}, {"measurement": "number of mice with loss in righting reflex", "setting": "[9]", "value": 6, "unit": "mice"}, {"measurement": "effect on the coordination and balance (number of falling animals)", "setting": "[10]; 160 mg/kg", "value": "significant effect"}, {"measurement": "effect on the coordination and balance, compared with the vehicle control group", "setting": "[10]; doses of 40 and 80 mg/kg", "value": "no significant effect"}]}]}
